Assays:
[1] = biological target: Histone deacetylase 1 (Homo sapiens, UniProt Q13547); assay: Inhibition of recombinant HDAC1 (unknown origin) expressed in Escherichia coli BL21(DE3) after 60 mins using trichostatin A by label-free mass spectrometry-based SAMDI assay
[2] = biological target: T1, Protein deacetylase HDAC6 (Homo sapiens, UniProt Q9UBN7); assay: Inhibition of recombinant HDAC6 (unknown origin) expressed in Escherichia coli BL21(DE3) after 60 mins using trichostatin A by label-free mass spectrometry-based SAMDI assay
T1 sequence (Q9UBN7 whole entry): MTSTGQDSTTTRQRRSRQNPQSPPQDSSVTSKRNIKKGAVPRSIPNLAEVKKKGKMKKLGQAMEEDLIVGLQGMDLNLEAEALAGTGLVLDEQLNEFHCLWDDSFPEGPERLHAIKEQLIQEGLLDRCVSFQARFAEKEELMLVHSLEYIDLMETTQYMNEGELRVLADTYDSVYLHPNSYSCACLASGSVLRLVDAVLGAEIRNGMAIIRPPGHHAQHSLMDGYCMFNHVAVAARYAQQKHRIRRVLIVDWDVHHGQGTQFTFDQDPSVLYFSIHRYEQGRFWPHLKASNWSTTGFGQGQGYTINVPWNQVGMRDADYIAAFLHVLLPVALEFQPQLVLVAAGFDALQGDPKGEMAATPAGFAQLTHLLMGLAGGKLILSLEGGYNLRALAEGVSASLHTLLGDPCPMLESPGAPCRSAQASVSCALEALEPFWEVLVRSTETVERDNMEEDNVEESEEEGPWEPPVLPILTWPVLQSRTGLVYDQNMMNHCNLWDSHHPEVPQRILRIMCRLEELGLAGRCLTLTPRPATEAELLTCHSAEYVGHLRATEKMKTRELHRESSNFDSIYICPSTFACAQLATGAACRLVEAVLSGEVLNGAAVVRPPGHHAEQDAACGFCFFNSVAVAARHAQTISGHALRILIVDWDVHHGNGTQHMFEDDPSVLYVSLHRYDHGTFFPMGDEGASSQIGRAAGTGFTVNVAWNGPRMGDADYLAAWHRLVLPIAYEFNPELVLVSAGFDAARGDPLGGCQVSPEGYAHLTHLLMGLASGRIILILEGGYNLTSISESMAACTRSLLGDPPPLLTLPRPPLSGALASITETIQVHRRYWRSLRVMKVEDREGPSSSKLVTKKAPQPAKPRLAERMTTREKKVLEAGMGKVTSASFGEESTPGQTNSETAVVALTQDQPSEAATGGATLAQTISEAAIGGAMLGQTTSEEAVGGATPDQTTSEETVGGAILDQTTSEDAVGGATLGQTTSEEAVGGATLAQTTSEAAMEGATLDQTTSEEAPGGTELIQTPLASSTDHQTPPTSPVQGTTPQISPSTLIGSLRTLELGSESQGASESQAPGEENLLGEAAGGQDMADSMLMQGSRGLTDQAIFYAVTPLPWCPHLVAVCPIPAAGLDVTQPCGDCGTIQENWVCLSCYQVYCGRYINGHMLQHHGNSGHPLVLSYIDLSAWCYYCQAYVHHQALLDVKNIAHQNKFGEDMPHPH

[3] = biological target: T2, Histone deacetylase 8 (Homo sapiens, UniProt Q9BY41); assay: Inhibition of recombinant HDAC8 (unknown origin) expressed in Escherichia coli BL21(DE3) after 60 mins using trichostatin A by label-free mass spectrometry-based SAMDI assay
T2 sequence (Q9BY41 whole entry): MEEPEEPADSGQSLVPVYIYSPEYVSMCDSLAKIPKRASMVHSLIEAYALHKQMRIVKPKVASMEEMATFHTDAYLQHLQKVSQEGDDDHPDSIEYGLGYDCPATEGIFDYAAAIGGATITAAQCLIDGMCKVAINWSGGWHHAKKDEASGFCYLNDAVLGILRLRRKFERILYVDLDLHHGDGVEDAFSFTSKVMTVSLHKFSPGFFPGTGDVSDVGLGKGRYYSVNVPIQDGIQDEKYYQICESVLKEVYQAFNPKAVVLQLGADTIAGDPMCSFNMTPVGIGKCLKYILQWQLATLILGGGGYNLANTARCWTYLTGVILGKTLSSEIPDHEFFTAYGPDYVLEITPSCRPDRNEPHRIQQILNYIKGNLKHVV

Histone deacetylase 1, sequence (Q13547 whole entry): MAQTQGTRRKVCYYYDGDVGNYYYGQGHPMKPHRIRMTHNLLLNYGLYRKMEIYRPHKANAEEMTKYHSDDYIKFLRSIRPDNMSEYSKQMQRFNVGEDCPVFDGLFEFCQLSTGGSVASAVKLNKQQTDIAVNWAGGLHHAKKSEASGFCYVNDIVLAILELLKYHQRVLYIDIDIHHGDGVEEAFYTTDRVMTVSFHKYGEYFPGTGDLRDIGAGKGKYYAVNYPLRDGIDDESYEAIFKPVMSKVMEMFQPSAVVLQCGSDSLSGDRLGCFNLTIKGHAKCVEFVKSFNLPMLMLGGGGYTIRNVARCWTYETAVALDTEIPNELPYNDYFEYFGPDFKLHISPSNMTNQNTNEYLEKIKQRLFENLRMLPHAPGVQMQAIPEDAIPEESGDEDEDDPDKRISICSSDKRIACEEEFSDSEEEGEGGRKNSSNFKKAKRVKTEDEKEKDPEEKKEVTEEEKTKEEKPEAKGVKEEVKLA

Row | Compound | IC50 [1] | IC50 [2] | IC50 [3]
1 | CC[C@H]1OC(=O)[C@H](C)[C@@H](O[C@@H]2C[C@](C)(OC)[C@H](O)[C@@H](C)O2)[C@H](C)[C@@H](O[C@@H]2O[C@H](C)C[C@H](N(C)C)[C@H]2O)[C@@](C)(O)C[C@@H](C)CN(Cc2ccc(-c3cn(CC(=O)NO)nn3)cc2)[C@@H](C)[C@@H](O)[C@]1(C)O | > 10000 nM | > 10000 nM | > 10000 nM
2 | CC[C@H]1OC(=O)[C@H](C)[C@@H](O[C@@H]2C[C@](C)(OC)[C@H](O)[C@@H](C)O2)[C@H](C)[C@@H](O[C@@H]2O[C@H](C)C[C@H](N(C)C)[C@H]2O)[C@@](C)(O)C[C@@H](C)CN(Cc2ccc(-c3cn(CCCC(=O)NO)nn3)cc2)[C@@H](C)[C@@H](O)[C@]1(C)O | > 10000 nM | 620 nM | 2770 nM
3 | CC[C@H]1OC(=O)[C@H](C)C(=O)[C@H](C)[C@@H](O[C@@H]2O[C@H](C)C[C@H](N(C)Cc3ccc(-c4cn(CCCCCC(=O)NO)nn4)cc3)[C@H]2O)[C@@](C)(OC)C[C@@H](C)C2=NCCN3C(=O)O[C@@]1(C)[C@H]3[C@H]2C | 73.1 nM | 8.9 nM | 2030 nM
4 | CC[C@@H]1OC(=O)[C@H](C)[C@@H](O[C@H]2C[C@@](C)(OC)[C@](O)(CN(C)Cc3ccc(-c4cn(CCC(=O)NO)nn4)cc3)[C@H](C)O2)[C@@H](C)[C@@H](O[C@@H]2O[C@H](C)C[C@H](N(C)C)[C@H]2O)[C@](C)(O)C[C@@H](C)CN(C)[C@H](C)[C@@H](O)[C@]1(C)O | > 10000 nM | 2030 nM | 2230 nM
5 | CC[C@@H]1OC(=O)[C@@H](C)[C@H](O[C@H]2C[C@@](C)(OC)[C@](O)(CN(C)Cc3ccc(-c4cn(CCCCC(=O)NO)nn4)cc3)[C@H](C)O2)[C@H](C)[C@H](O[C@@H]2O[C@H](C)C[C@H](N(C)C)[C@H]2O)[C@@](C)(OC)C[C@H](C)C(=O)[C@@H](C)[C@@H](O)[C@@]1(C)O | 3690 nM | 269 nM | 1820 nM
6 | CC[C@@H]1OC(=O)[C@H](C)[C@@H](O[C@H]2C[C@@](C)(OC)[C@](O)(CN(C)C)[C@H](C)O2)[C@@H](C)[C@@H](O[C@@H]2O[C@H](C)C[C@H](N(C)Cc3ccc(-c4cn(CCCCCC(=O)NO)nn4)cc3)[C@H]2O)[C@](C)(O)C[C@@H](C)CN(C)[C@H](C)[C@@H](O)[C@]1(C)O | 160 nM | 14.7 nM | 1090 nM
7 | CC[C@@H]1OC(=O)[C@@H](C)[C@H](O[C@H]2C[C@@](C)(OC)[C@](O)(CN(C)Cc3ccc(-c4cn(CC(=O)NO)nn4)cc3)[C@H](C)O2)[C@H](C)[C@H](O[C@@H]2O[C@H](C)C[C@H](N(C)C)[C@H]2O)[C@@](C)(OC)C[C@H](C)C(=O)[C@@H](C)[C@@H](O)[C@@]1(C)O | > 10000 nM | 5350 nM | 7120 nM
8 | CC[C@H]1OC(=O)[C@@H](C)[C@H](O[C@@H]2C[C@](C)(OC)[C@@](O)(CN(C)Cc3ccc(-c4cn(CC(=O)NO)nn4)cc3)[C@@H](C)O2)[C@H](C)[C@H](O[C@H]2O[C@@H](C)C[C@@H](N(C)C)[C@@H]2O)[C@@](C)(O)C[C@H](C)CN(C)[C@@H](C)[C@H](O)[C@@]1(C)O | > 10000 nM | > 10000 nM | 4510 nM
9 | CC[C@@H]1OC(=O)[C@H](C)[C@@H](O[C@@H]2C[C@](C)(OC)[C@H](O)[C@@H](C)O2)[C@@H](C)[C@@H](O[C@@H]2O[C@H](C)C[C@H](N(C)Cc3ccc(-c4cn(CCCCC(=O)NO)nn4)cc3)[C@H]2O)[C@](C)(O)C[C@@H](C)CN(C)[C@H](C)[C@@H](O)[C@]1(C)O | 1650 nM | 145 nM | 5380 nM
10 | CC[C@H]1OC(=O)[C@H](C)C(=O)[C@H](C)[C@@H](O[C@@H]2O[C@H](C)C[C@H](N(C)Cc3ccc(-c4cn(CC(=O)NO)nn4)cc3)[C@H]2O)[C@@](C)(OC)C[C@@H](C)C2=NCCN3C(=O)O[C@@]1(C)[C@H]3[C@H]2C | > 10000 nM | > 10000 nM | 2850 nM
11 | CC[C@H]1OC(=O)[C@H](C)[C@@H](O[C@@H]2C[C@](C)(OC)[C@H](O)[C@@H](C)O2)[C@@H](C)[C@@H](O[C@H]2O[C@@H](C)C[C@@H](N(C)Cc3ccc(-c4cn(CCCC(=O)NO)nn4)cc3)[C@@H]2O)[C@](C)(OC)C[C@@H](C)C(=O)[C@H](C)[C@H](O)[C@]1(C)O | 9910 nM | 70.9 nM | 986 nM
12 | CC[C@H]1OC(=O)[C@H](C)C(=O)[C@H](C)[C@@H](O[C@@H]2O[C@H](C)C[C@H](N(C)Cc3ccc(-c4cn(CCC(=O)NO)nn4)cc3)[C@H]2O)[C@@](C)(OC)C[C@@H](C)C2=NCCN3C(=O)O[C@@]1(C)[C@H]3[C@H]2C | > 10000 nM | 1730 nM | > 10000 nM
13 | CC[C@@H]1OC(=O)[C@@H](C)[C@H](O[C@H]2C[C@@](C)(OC)[C@@H](O)[C@H](C)O2)[C@H](C)[C@H](O[C@@H]2O[C@H](C)C[C@H](N(C)Cc3ccc(-c4cn(CC(=O)NO)nn4)cc3)[C@H]2O)[C@@](C)(OC)C[C@H](C)C(=O)[C@@H](C)[C@@H](O)[C@@]1(C)O | > 10000 nM | > 10000 nM | > 10000 nM
14 | CC[C@@H]1OC(=O)[C@@H](C)[C@H](O[C@H]2C[C@@](C)(OC)[C@@H](O)[C@H](C)O2)[C@H](C)[C@H](O[C@@H]2O[C@H](C)C[C@H](N(C)Cc3ccc(-c4cn(CCC(=O)NO)nn4)cc3)[C@H]2O)[C@@](C)(OC)C[C@H](C)C(=O)[C@@H](C)[C@@H](O)[C@@]1(C)O | > 10000 nM | 919 nM | 2450 nM
15 | CC[C@@H]1OC(=O)[C@@H](C)[C@H](O[C@H]2C[C@@](C)(OC)[C@@H](O)[C@H](C)O2)[C@H](C)[C@H](O[C@@H]2O[C@H](C)C[C@H](N(C)Cc3ccc(-c4cn(CCCCC(=O)NO)nn4)cc3)[C@H]2O)[C@@](C)(OC)C[C@H](C)C(=O)[C@@H](C)[C@@H](O)[C@@]1(C)O | 4870 nM | 120 nM | 877 nM
16 | CC[C@@H]1OC(=O)[C@@H](C)[C@H](O[C@H]2C[C@@](C)(OC)[C@](O)(CN(C)Cc3ccc(-c4cn(CCC(=O)NO)nn4)cc3)[C@H](C)O2)[C@H](C)[C@H](O[C@@H]2O[C@H](C)C[C@H](N(C)C)[C@H]2O)[C@@](C)(OC)C[C@H](C)C(=O)[C@@H](C)[C@@H](O)[C@@]1(C)O | > 10000 nM | 3560 nM | 10200 nM
17 | CC[C@H]1OC(=O)[C@@H](C)[C@H](O[C@H]2C[C@@](C)(OC)[C@@H](O)[C@H](C)O2)[C@H](C)[C@H](O[C@H]2O[C@@H](C)C[C@@H](N(C)Cc3ccc(-c4cn(CC(=O)NO)nn4)cc3)[C@@H]2O)[C@@](C)(O)C[C@H](C)CN(C)[C@@H](C)[C@H](O)[C@@]1(C)O | > 10000 nM | 5660 nM | > 10000 nM
18 | CC[C@H]1OC(=O)[C@H](C)C(=O)[C@H](C)[C@@H](O[C@@H]2O[C@H](C)C[C@H](N(C)Cc3ccccc3-c3cn(CCCCCC(=O)NO)nn3)[C@H]2O)[C@@](C)(OC)C[C@@H](C)C2=NCCN3C(=O)O[C@@]1(C)[C@H]3[C@H]2C | > 10000 nM | 248 nM | 1190 nM
19 | CC[C@@H]1OC(=O)[C@H](C)[C@@H](O[C@@H]2C[C@](C)(OC)[C@H](O)[C@@H](C)O2)[C@@H](C)[C@@H](O[C@@H]2O[C@H](C)C[C@H](N(C)Cc3ccccc3-c3cn(CCCCCC(=O)NO)nn3)[C@H]2O)[C@](C)(O)C[C@@H](C)CN(C)[C@H](C)[C@@H](O)[C@]1(C)O | 613 nM | 178 nM | 4300 nM

From ChEMBL document CHEMBL3734738, “A structure-activity relationship of non-peptide macrocyclic histone deacetylase inhibitors and their anti-proliferative and anti-inflammatory activities” (Bioorg Med Chem, 2015)
